# Reference: ChEMBL document CHEMBL5303573, “Mapping human microbiome drug metabolism by gut bacteria and their genes” (Nature, 2019)
# Assay: The drug is tested on Subdoligranulum variabile strain: DSM15176 for biotransformation. The drug concentrations were measured before and after a 12-h incubation by liquid-chromatography-coupled mass spectrometry (LC–MS)
# Conditions: 2 µM
row,SMILES,Bacterial Biotransformation
1,CCN1CCCC1CNC(=O)c1cc(S(=O)(=O)CC)c(N)cc1OC (centres undefined) [AMISULPRIDE],Compound NOT metabolized
2,CCCC(=O)Nc1ccc(OCC(O)CNC(C)C)c(C(C)=O)c1 (centres undefined) [ACEBUTOLOL],Compound NOT metabolized
3,C=CCc1ccccc1OCC(O)CNC(C)C (centres undefined) [ALPRENOLOL],Compound NOT metabolized

# Assay: The drug is tested on Bacteroides vulgatus strain: ATCC8482 for biotransformation. The drug concentrations were measured before and after a 12-h incubation by liquid-chromatography-coupled mass spectrometry (LC–MS)
# Conditions: phocaeicola vulgatus, 2 µM
row,SMILES,Bacterial Biotransformation
1,CCN1CCCC1CNC(=O)c1cc(S(=O)(=O)CC)c(N)cc1OC (centres undefined) [AMISULPRIDE],Compound NOT metabolized
2,C=CCc1ccccc1OCC(O)CNC(C)C (centres undefined) [ALPRENOLOL],Compound NOT metabolized

# Conditions: segatella copri, 12 h, 2 µM
# Description: The drug is tested on Prevotella copri strain: DSM18205 for biotransformation. The drug concentrations were measured before and after a 12-h incubation by liquid-chromatography-coupled mass spectrometry (LC–MS)
row,SMILES,Bacterial Biotransformation
1,CCN1CCCC1CNC(=O)c1cc(S(=O)(=O)CC)c(N)cc1OC (centres undefined) [AMISULPRIDE],Compound NOT metabolized
2,CCCC(=O)Nc1ccc(OCC(O)CNC(C)C)c(C(C)=O)c1 (centres undefined) [ACEBUTOLOL],Compound NOT metabolized
3,C=CCc1ccccc1OCC(O)CNC(C)C (centres undefined) [ALPRENOLOL],Compound NOT metabolized

# Assay: The drug is tested on Bacteroides cellulosilyticus strain: DSM14838 for biotransformation. The drug concentrations were measured before and after a 12-h incubation by liquid-chromatography-coupled mass spectrometry (LC–MS)
# Conditions: 2 µM
row,SMILES,Bacterial Biotransformation
1,CCN1CCCC1CNC(=O)c1cc(S(=O)(=O)CC)c(N)cc1OC (centres undefined) [AMISULPRIDE],Compound NOT metabolized
2,CCCC(=O)Nc1ccc(OCC(O)CNC(C)C)c(C(C)=O)c1 (centres undefined) [ACEBUTOLOL],Compound NOT metabolized

# Assay: The drug is tested on Eubacterium ventriosum strain: ATCC27560 for biotransformation. The drug concentrations were measured before and after a 12-h incubation by liquid-chromatography-coupled mass spectrometry (LC–MS)
# Format: ADME
# Set-up: dose 2 uM, timepoint 0 vs 12 hours
# Conditions: 2 µM
row,SMILES,Bacterial Biotransformation
1,CCN1CCCC1CNC(=O)c1cc(S(=O)(=O)CC)c(N)cc1OC (centres undefined) [AMISULPRIDE],Compound NOT metabolized
2,CCCC(=O)Nc1ccc(OCC(O)CNC(C)C)c(C(C)=O)c1 (centres undefined) [ACEBUTOLOL],Compound NOT metabolized
3,C=CCc1ccccc1OCC(O)CNC(C)C (centres undefined) [ALPRENOLOL],Compound NOT metabolized

# Assay: The drug is tested on Bifidobacterium breve strain: DSM20213 for biotransformation. The drug concentrations were measured before and after a 12-h incubation by liquid-chromatography-coupled mass spectrometry (LC–MS)
# Conditions: 2 µM
row,SMILES,Bacterial Biotransformation
1,CCN1CCCC1CNC(=O)c1cc(S(=O)(=O)CC)c(N)cc1OC (centres undefined) [AMISULPRIDE],Compound NOT metabolized
2,CCCC(=O)Nc1ccc(OCC(O)CNC(C)C)c(C(C)=O)c1 (centres undefined) [ACEBUTOLOL],Compound NOT metabolized
3,C=CCc1ccccc1OCC(O)CNC(C)C (centres undefined) [ALPRENOLOL],Compound NOT metabolized

# Conditions: roseburia intestinalis, 12 h, 2 µM
# Description: The drug is tested on Roseburia intestinalis strain: L1-82 for biotransformation. The drug concentrations were measured before and after a 12-h incubation by liquid-chromatography-coupled mass spectrometry (LC–MS)
row,SMILES,Bacterial Biotransformation
1,CCN1CCCC1CNC(=O)c1cc(S(=O)(=O)CC)c(N)cc1OC (centres undefined) [AMISULPRIDE],Compound NOT metabolized
2,CCCC(=O)Nc1ccc(OCC(O)CNC(C)C)c(C(C)=O)c1 (centres undefined) [ACEBUTOLOL],Compound NOT metabolized
3,C=CCc1ccccc1OCC(O)CNC(C)C (centres undefined) [ALPRENOLOL],Compound NOT metabolized

# Assay: The drug is tested on Bacteroides sp. WH2 strain: WH2 for biotransformation. The drug concentrations were measured before and after a 12-h incubation by liquid-chromatography-coupled mass spectrometry (LC–MS)
# Conditions: bacteroides sp. wh2, 12 h, 2 µM
row,SMILES,Bacterial Biotransformation
1,CCN1CCCC1CNC(=O)c1cc(S(=O)(=O)CC)c(N)cc1OC (centres undefined) [AMISULPRIDE],Compound NOT metabolized
2,CCCC(=O)Nc1ccc(OCC(O)CNC(C)C)c(C(C)=O)c1 (centres undefined) [ACEBUTOLOL],Compound NOT metabolized
3,C=CCc1ccccc1OCC(O)CNC(C)C (centres undefined) [ALPRENOLOL],Compound NOT metabolized

# Assay: The drug is tested on Escherichia coli strain: BW25113 for biotransformation. The drug concentrations were measured before and after a 12-h incubation by liquid-chromatography-coupled mass spectrometry (LC–MS)
# Conditions: 2 µM
row,SMILES,Bacterial Biotransformation
1,CCN1CCCC1CNC(=O)c1cc(S(=O)(=O)CC)c(N)cc1OC (centres undefined) [AMISULPRIDE],Compound NOT metabolized
2,CCCC(=O)Nc1ccc(OCC(O)CNC(C)C)c(C(C)=O)c1 (centres undefined) [ACEBUTOLOL],Compound NOT metabolized

# Conditions: bacteroides thetaiotaomicron, 12 h, 2 µM
# Description: The drug is tested on Bacteroides thetaiotaomicron strain: VPI-5482 for biotransformation. The drug concentrations were measured before and after a 12-h incubation by liquid-chromatography-coupled mass spectrometry (LC–MS)
row,SMILES,Bacterial Biotransformation
1,CCN1CCCC1CNC(=O)c1cc(S(=O)(=O)CC)c(N)cc1OC (centres undefined) [AMISULPRIDE],Compound NOT metabolized
2,CCCC(=O)Nc1ccc(OCC(O)CNC(C)C)c(C(C)=O)c1 (centres undefined) [ACEBUTOLOL],Compound NOT metabolized
3,C=CCc1ccccc1OCC(O)CNC(C)C (centres undefined) [ALPRENOLOL],Compound NOT metabolized

# Conditions: bacteroides thetaiotaomicron, 12 h, 2 µM
# Remark: another data set of the same source
# Description: The drug is tested on Bacteroides thetaiotaomicron strain: 7330 for biotransformation. The drug concentrations were measured before and after a 12-h incubation by liquid-chromatography-coupled mass spectrometry (LC–MS)
row,SMILES,Bacterial Biotransformation
1,CCN1CCCC1CNC(=O)c1cc(S(=O)(=O)CC)c(N)cc1OC (centres undefined) [AMISULPRIDE],Compound NOT metabolized
2,CCCC(=O)Nc1ccc(OCC(O)CNC(C)C)c(C(C)=O)c1 (centres undefined) [ACEBUTOLOL],Compound NOT metabolized
3,C=CCc1ccccc1OCC(O)CNC(C)C (centres undefined) [ALPRENOLOL],Compound NOT metabolized

# Assay: The drug is tested on Dorea formicigenerans strain: ATCC27755 for biotransformation. The drug concentrations were measured before and after a 12-h incubation by liquid-chromatography-coupled mass spectrometry (LC–MS)
# Conditions: 2 µM
row,SMILES,Bacterial Biotransformation
1,CCN1CCCC1CNC(=O)c1cc(S(=O)(=O)CC)c(N)cc1OC (centres undefined) [AMISULPRIDE],Compound NOT metabolized
2,CCCC(=O)Nc1ccc(OCC(O)CNC(C)C)c(C(C)=O)c1 (centres undefined) [ACEBUTOLOL],Compound NOT metabolized
3,C=CCc1ccccc1OCC(O)CNC(C)C (centres undefined) [ALPRENOLOL],Compound NOT metabolized

# Conditions: akkermansia muciniphila, 12 h, 2 µM
# Description: The drug is tested on Akkermansia muciniphila strain: ATCC BAA-835 for biotransformation. The drug concentrations were measured before and after a 12-h incubation by liquid-chromatography-coupled mass spectrometry (LC–MS)
row,SMILES,Bacterial Biotransformation
1,CCN1CCCC1CNC(=O)c1cc(S(=O)(=O)CC)c(N)cc1OC (centres undefined) [AMISULPRIDE],Compound NOT metabolized
2,CCCC(=O)Nc1ccc(OCC(O)CNC(C)C)c(C(C)=O)c1 (centres undefined) [ACEBUTOLOL],Compound NOT metabolized

# Conditions: bacteroides eggerthii, 12 h, 2 µM
# Description: The drug is tested on Bacteroides eggerthii strain: DSM20697 for biotransformation. The drug concentrations were measured before and after a 12-h incubation by liquid-chromatography-coupled mass spectrometry (LC–MS)
row,SMILES,Bacterial Biotransformation
1,CCN1CCCC1CNC(=O)c1cc(S(=O)(=O)CC)c(N)cc1OC (centres undefined) [AMISULPRIDE],Compound NOT metabolized
2,CCCC(=O)Nc1ccc(OCC(O)CNC(C)C)c(C(C)=O)c1 (centres undefined) [ACEBUTOLOL],Compound NOT metabolized
3,C=CCc1ccccc1OCC(O)CNC(C)C (centres undefined) [ALPRENOLOL],Compound NOT metabolized

# Assay: The drug is tested on Clostridium asparagiforme strain: DSM15981 for biotransformation. The drug concentrations were measured before and after a 12-h incubation by liquid-chromatography-coupled mass spectrometry (LC–MS)
# Format: ADME
# Set-up: dose 2 uM, timepoint 0 vs 12 hours
# Conditions: enterocloster asparagiformis, 2 µM
row,SMILES,Bacterial Biotransformation
1,CCN1CCCC1CNC(=O)c1cc(S(=O)(=O)CC)c(N)cc1OC (centres undefined) [AMISULPRIDE],Compound NOT metabolized
2,CCCC(=O)Nc1ccc(OCC(O)CNC(C)C)c(C(C)=O)c1 (centres undefined) [ACEBUTOLOL],Compound NOT metabolized
3,C=CCc1ccccc1OCC(O)CNC(C)C (centres undefined) [ALPRENOLOL],Compound NOT metabolized

# Assay: The drug is tested on Blautia luti strain: DSM14534 for biotransformation. The drug concentrations were measured before and after a 12-h incubation by liquid-chromatography-coupled mass spectrometry (LC–MS)
# Format: ADME
# Set-up: dose 2 uM, timepoint 0 vs 12 hours
# Conditions: 2 µM
row,SMILES,Bacterial Biotransformation
1,CCN1CCCC1CNC(=O)c1cc(S(=O)(=O)CC)c(N)cc1OC (centres undefined) [AMISULPRIDE],Compound NOT metabolized
2,CCCC(=O)Nc1ccc(OCC(O)CNC(C)C)c(C(C)=O)c1 (centres undefined) [ACEBUTOLOL],Compound NOT metabolized
3,C=CCc1ccccc1OCC(O)CNC(C)C (centres undefined) [ALPRENOLOL],Compound NOT metabolized

# Assay: The drug is tested on Collinsella intestinalis strain: DSM13280 for biotransformation. The drug concentrations were measured before and after a 12-h incubation by liquid-chromatography-coupled mass spectrometry (LC–MS)
# Conditions: 2 µM
row,SMILES,Bacterial Biotransformation
1,CCN1CCCC1CNC(=O)c1cc(S(=O)(=O)CC)c(N)cc1OC (centres undefined) [AMISULPRIDE],Compound NOT metabolized
2,CCCC(=O)Nc1ccc(OCC(O)CNC(C)C)c(C(C)=O)c1 (centres undefined) [ACEBUTOLOL],Compound NOT metabolized
3,C=CCc1ccccc1OCC(O)CNC(C)C (centres undefined) [ALPRENOLOL],Compound NOT metabolized

# Assay: The drug is tested on Bacteroides fragilis strain: HMW610 for biotransformation. The drug concentrations were measured before and after a 12-h incubation by liquid-chromatography-coupled mass spectrometry (LC–MS)
# Conditions: 2 µM
row,SMILES,Bacterial Biotransformation
1,CCCC(=O)Nc1ccc(OCC(O)CNC(C)C)c(C(C)=O)c1 (centres undefined) [ACEBUTOLOL],Compound NOT metabolized

# Assay: The drug is tested on Blautia hansenii strain: DSM20583 for biotransformation. The drug concentrations were measured before and after a 12-h incubation by liquid-chromatography-coupled mass spectrometry (LC–MS)
# Conditions: 2 µM
row,SMILES,Bacterial Biotransformation
1,C=CCc1ccccc1OCC(O)CNC(C)C (centres undefined) [ALPRENOLOL],Compound NOT metabolized
